Source: PMC7719179, “Small molecule inhibition of Dynamin-dependent endocytosis targets multiple niche signals and impairs leukemia stem cells” (Nature Communications, 2020)
Several values for one entry are separate records, joined by “and”; a condition that tells them apart may be missing. Equal values may be shown once.

Experiments:
Type in all cases: cell-based, murine
[1] = tested on: Ba/F3-IL7R^Stat5-CA cells; test: Cytotoxic activity in IL-7-dependent and IL-7-independent Ba/F3-IL7R^Stat5-CA cells; conditions: for Survival (%) over survival at day 0, reported as 100%: Ba/F3-IL7R^Stat5-CA cells, dose = IC50 or LC50 of each drug
Text: The doxycycline-inducible dual-colour TRMPVIR (TRE-dsRed-miR30/shRNA-PGK-Venus-IRES-rtTA3) retroviral vector[84] was kindly given by R. A. Dickins and was modified by replacing the dsRed-miR30/shRNA sequence by a T2A self-cleaving peptide[85] fusioned with the mCherry fluorescent protein (from TRIPZ, Addgene) inserted into the BamHI and EcoRI sites of the plasmid downstream of the TRE promoter to generate the TxTCPVIR (TRE-gene-T2A-mCherry-PGK-Venus-IRES-rtTA3) retroviral vector. Using standard cloning techniques, we inserted the full-length sequence of Stat5-CA from the pMig-R1 construct into the TxTCPVIR vector to generate the TxTCPVIR-Stat5-CA construct. All subcloned constructs were verified by DNA sequencing (Micromon, Monash University, Australia). Detailed cloning strategies, primers sequences and vectors are available on request.
(§1) Ba/F3 cells (kindly provided by a person from The Walter and Eliza Hall Institute of Medical Research) were infected with pMIG-R1/Il7r retroviral supernatants produced in 293T cells, and transduced cells were sorted with a BD Influx (BD Australia) and selected by culture in medium supplemented with 5 ng/mL rmIL-7 (#217-17, Pepro Tech, Rocky Hill NJ, USA) for 7 days. Ba/F3 cells stably expressing Il7r (Ba/F3-IL7R) were infected with TxTCPVIR-Stat5-CA retroviral supernatants produced in 293T. Cell sorting was performed with a BD Influx and transduced cells were treated with doxycycline for 48 h to induce the expression of the Stat5-CA-T2A-mCherry fusion protein.
Flow cytometry analyses were performed as previously described[10],[86] on single-cell suspensions stained using BD Pharmingen antibodies (BD Australia, North Ryde NSW, Australia) against mouse CD4 (RM4-5), CD8 (53-6.7), CD25 (PC61.5), CD44 (IM7), CD45.1 (A20), CD45.2 (104), Thy1.2 (53-2.1; #561616), TCRβ (H57-597), CD117 (ACK45), CD135 (A2F10.1), CD150 (TC15-12F12.2; #562373), B220 (RA3-6B2; #563708), CD3 (145-2C11; #563004), CD19 (ID3; #557655), Gr-1 (RB6-8C5; #563299 and #565033), CD11b (M1/70; #563015 and #560455), Ter119 (Ter119; #565523 and #557909), Sca-1 (D7; #558160) and an eBioscience antibody (eBioscience, Invitrogen) against mouse NOTCH1 (22E5). DN3 populations and IL-7R were stained using BioLegend antibodies (Australian Biosearch, Balcatta WA, Australia) against mouse CD28 (E18) and CD127 (A7R34), respectively. Apoptosis was measured using an antibody against AnnexinV (#556420, BD Australia) and the […] Sytox Blue (BD Australia) following the manufacturer’s protocol.

[2] = tested on: IL-7 signalling (pStat5) in Ba/F3-IL7R cells; test: IL-7-induced phospho-Stat5 in Ba/F3-IL7R cells (phosphoflow); conditions: Ba/F3-IL7R cells; result in words
Protocol: as §1
Phosphoflow analysis was performed as previously described. Briefly, 2 × 10^6 cells stained for surface markers were subsequently resuspended into PBS 1× + 4% v/v paraformaldehyde and incubated for 10 min at 4 °C for fixation. Fixed cells were washed twice using PBS 1×, then resuspended in pre-chilled at −20 °C Perm Buffer III (BD Pharmingen) and incubated 30 min at 4 °C for permeabilization. Cells were washed twice using PBS 1× and incubated overnight at 4 °C in PBS 1× + 2% v/v fetal calf serum (FCS) with Cell Signalling purified antibodies (Genesearch Pty Ltd, Arundel QLD, Australia) against pSTAT5 (Tyr694; #9359), phospho-p38 MAPK (Thr180/Tyr182; #4511), phospho-p44/42 (Erk1/2; #9102), phospho-S6 (Ser235/236; #4856) and phospho-Akt (Ser473; #9271) or isotype control. For intracellular HES1 detection, cells stained for surface markers were subsequently fixed and permeabilized using the BD Cytofix/Cytoperm^TM Kit and incubated overnight at 4 °C in PBS 1× + 2% v/v FCS with a purified antibody against HES1 (D6PU; #11988, Cell Signalling) or isotype control. After staining with primary antibodies for phosphoflow or intracellular detection, cells were incubated in permeabilization buffer with donkey Alexa Fluor 488-conjugated anti-rabbit secondary antibody (A-21206, lot #1910751, Molecular Probes, Invitrogen) or goat Alexa Fluor 546-conjugated anti-rabbit secondary antibody (A-11035, lot #1904467, Molecular Probes, Invitrogen) for 1 h on ice, and washed twice in PBS 1×. Fluorescence-activated cell sorting (FACS) analysis was performed using LSRII and LSR Fortessa cytometers, following the gating strategies described in Supplementary Fig. 11. Cell sorting was performed with a FACSAria or BD Influx.
For in vitro IL-7 stimulation assays, cells were starved in serum-free DMEM at 37 °C, then incubated with either vehicle or Dynole 34-2 or Ruxolitinib (INCB018424; #S1378, Selleckchem), or DAPT (GSI-IX; #S2215, Selleckchem) resuspended in DMSO for 1 h. Thymocytes were subsequently stimulated with 25 ng/mL IL-7 at 37 °C for 20 min and washed twice using cold PBS 1×. Cells were incubated with 25 ng/mL Rat IgG (Sigma-Aldrich Pty Ltd, Castle Hill NSW, Australia) and with a PE-conjugated antibody for detection of IL-7R (CD127) for 1 h on ice, as described in the FACS analysis section. PE-conjugated isotype was used as negative control. Cells were washed twice, fixed and phosphoflow analysis performed as described in the FACS analysis section. The analysis was performed in triplicate and the mean fluorescence intensity (MFI) observed without stimulation was reported as 100%.

[3] = tested on: Ba/F3-IL7R^Stat5-CA cells; test: pStat5 and proliferation of Ba/F3-IL7R^Stat5-CA cells with IL-7 or doxycycline; conditions: relative to data from day 0, reported as 1, groups +IL-7 -DOX or -IL-7 +DOX
Protocol: as §1, with “protein. […]” for “protein.”
(red) assessed by flow cytometry (top) and Western blots (bottom). MFI ± SD of n=2 technical replicates, performed in 2 independent experiments (***P<0.001 compared to unstimulated cells ; white bar). For Western blots, Actin was used as a loading control. f, Proliferation of BaF3-IL7R Stat5-CA cells in absence (+IL-7 –DOX; grey) or presence (-IL-7 +DOX; red) of doxycycline. Fold expansion was calculated from the number of cells initially put into culture at day 0. […]

Molecule: CC[C@]1(O)C[C@H]2CN(CCc3c([nH]c4ccccc34)[C@@](C(=O)OC)(c3cc4c(cc3OC)N(C=O)[C@H]3[C@@](O)(C(=O)OC)[C@H](OC(C)=O)[C@]5(CC)C=CCN6CC[C@]43[C@@H]65)C2)C1 [Vincristine]
- Survival (%) over survival at day 0, reported as 100% ([1]; +IL-7 -DOX, 0 h): 100.02% and 100.26% and 100.28% and 99.72% and 99.53% and 100.47%
- Survival (%) over survival at day 0, reported as 100% ([1]; +IL-7 -DOX, 24 h): 97.78% and 97.03% and 92.76% and 93.67% and 88.90% and 79.18%
- Survival (%) over survival at day 0, reported as 100% ([1]; +IL-7 -DOX, 48 h): 60.76% and 61.24% and 44.94% and 67.20% and 75.05% and 65.49%
- Survival (%) over survival at day 0, reported as 100% ([1]; +IL-7 -DOX, 72 h): 42.05% and 38.67% and 50.69% and 46.55% and 54.10% and 54.58%
- Survival (%) over survival at day 0, reported as 100% ([1]; +IL-7 -DOX, 96 h): 9.57% and 5.19% and 6.30%
- Survival (%) over survival at day 0, reported as 100% ([1]; -IL-7 +DOX, 0 h): 100.62% and 100.47% and 99.53% and 102.59% and 99.98% and 100.02%
- Survival (%) over survival at day 0, reported as 100% ([1]; -IL-7 +DOX, 24 h): 84.77% and 83.72% and 89.11% and 91.00% and 83.57% and 82.00%
- Survival (%) over survival at day 0, reported as 100% ([1]; -IL-7 +DOX, 48 h): 82.10% and 78.50% and 82.90% and 69.10% and 67.20% and 82.60%
- Survival (%) over survival at day 0, reported as 100% ([1]; -IL-7 +DOX, 72 h): 60.60% and 57.90% and 64.60% and 57.00% and 62.20% and 65.20%
- Survival (%) over survival at day 0, reported as 100% ([1]; -IL-7 +DOX, 120 h): 34.10% and 40.50% and 30.80% and 32.50% and 34.90% and 26.60%
- sensitivity of Ba/F3-IL7R^Stat5-CA cells with constitutive pStat5 (doxycycline) ([1]; result in words): equally effective

Molecule: O=C(N/N=C/c1ccc(O)c(O)c1)c1cc2ccccc2cc1O [Dynasore, reference compound]
- inhibition of IL-7 signalling as measured by loss of phospho-Stat5 [2]: dose-dependent inhibition

Molecule: O=C(NN=Cc1cc(O)c(O)cc1O)c1cc2ccccc2cc1O [Dyngo 4a, 3-Hydroxy-N’-[(2,4,5-trihydroxyphenyl)-methylidene]-naphthalene-2-carbohydrazide, reference compound]
- inhibition of IL-7 signalling as measured by loss of phospho-Stat5 [2]: dose-dependent inhibition

Molecule: C[C@H]1c2cccc(O)c2C(=O)C2=C(O)[C@]3(O)C(=O)C(C(N)=O)=C(O)[C@@H](N(C)C)[C@@H]3[C@@H](O)[C@@H]21 [DOX]
- Fold expansion ([3]; 24 h): 0.89 and 0.85 and 0.86 and 0.90 and 0.74 and 0.77
- Fold expansion ([3]; 48 h): 1.39 and 1.43 and 1.24 and 1.40 and 1.29 and 1.28
- Fold expansion ([3]; 72 h): 2.22 and 2.26 and 3.46 and 3.54 and 3.68 and 3.14
- Fold expansion ([3]; 96 h): 3.24 and 3.39 and 3.99 and 3.41 and 3.51 and 3.96
- Fold expansion ([3]; 120 h): 10.84 and 12.62 and 8.80 and 9.76 and 7.34 and 8.20

Molecule: IL-7
- Fold expansion ([3]; 24 h): 0.74 and 0.75 and 0.79 and 0.97 and 0.91 and 0.98
- Fold expansion ([3]; 72 h): 2.37 and 2.58 and 4.20 and 3.96 and 3.95 and 3.51
- Fold expansion ([3]; 120 h): 9.32 and 11.24 and 15.76 and 15.48 and 14.68 and 15.08
